Reference: publication PMC10762078, “Role of UPF1-LIN28A interaction during early differentiation of pluripotent stem cells” (Nature Communications, 2024)
Ends that are not written are not given here.

Columns and labels:
[1] = test system: CHA15 cells transcriptome / NMD targets; assay: RNA-seq of CPP-peptide-treated CHA15 cells (NMD targets, SDGs; Fig. 6a, b, d; Supplementary Fig. 6a; Supplementary Data 2); type: cell-based, Homo sapiens; details: for gene expression, CPP-P8 / P1: vs P1, RNA-seq; for number of NMD targets significantly changed by CPP-P8: hESCs (CHA15)
Description: For CPP-conjugated peptide delivery, HeLa, 293T, and PA-1 cells were incubated with CPP-conjugated peptides or CPP-FITC at 2 μM in DMEM with 10% FBS for 12 h a day before cell harvest. hPSCs were treated with CPP-conjugated peptides at 10 μM in mTeSR Plus Medium, […] The ROCK inhibitor (Tocris Bioscience, Y-27632) treated-hPSCs were dissociated into single cells using Accutase (Merck, SCR005) and differentiated into ectoderm, mesoderm, and endoderm using the STEMdiff Trilineage Differentiation Kit ([…] Technologies, 05230) following the manufacturer’s protocol. Differentiated cells treated with CPP-conjugated peptides were analysed at 0, 3, and 5 days for ectoderm and endoderm, and at 0, 3, and 4 days for mesoderm.
Total RNA concentration was calculated using Quant-IT RiboGreen (Invitrogen, R11490). To assess the integrity of the total RNA, samples were run on a TapeStation RNA screentape (Agilent). Only high-quality RNA preparations with RNA integrity number greater than 7.0 were used for the RNA library construction. A library was independently prepared with 1 μg of total RNA from each sample using the Illumina TruSeq Stranded mRNA Sample Prep Kit (Illumina, 20020594). The first step in the workflow involves purifying poly‐A-containing mRNA molecules using poly‐T‐attached magnetic beads. Following purification, mRNA was fragmented into small pieces using divalent cations at elevated temperatures. The cleaved RNA fragments were copied into first-strand cDNA using SuperScript II reverse transcriptase (Invitrogen, 18064022) and random primers. This was followed by second-strand cDNA synthesis using DNA polymerase I, RNase H, and dUTP. These cDNA fragments underwent an end repair process, adding a single ‘A’ base and ligating the adapters. The products were purified and enriched via PCR to create the final cDNA library. The libraries were quantified using the KAPA Library Quantification Kits for Illumina Sequencing platforms according to the qPCR Quantification Protocol Guide (KAPA BIOSYSTEMS, KR0405) and qualified using the TapeStation D1000 ScreenTape (Agilent). Indexed libraries were then submitted to an Illumina NovaSeq (Illumina), and Macrogen Inc. performed paired-end (2 × 100 bp) sequencing.
We pre-processed the raw reads from the sequencer to remove low-quality reads and adapter sequences before analysis and aligned the processed reads to Homo sapiens (GRCh37) using HISAT v2.1.0[52]. HISAT utilises two indices for alignment (a global whole-genome index and tens of thousands of small local indexes). These two types of indices are constructed using the same Burrows-Wheeler transform (BWT)/graph FM index (GFM) as Bowtie2. The reference genome sequence of Homo sapiens (GRCh37) and the annotation data were downloaded from the NCBI database. Transcript assembly was processed using StringTie v1.3.4d[53],[54]. […] Differentially expressed genes (DEGs) were analysed by ratio of FPKM or using DESeq2 with read counts. Log2 fold-change value of the NMD targets[25],[32], three germ layer markers, miRNA targets, or SDGs was converted into cumulative frequency curve using the R function, ‘ecdf’ (version 4.0.5). Gene functional classification and Gene ontology (GO) were performed using g:Profiler[56].

[2] = test system: nonsense-mediated mRNA decay (NMD); assay: NMD reporter mRNA by RT-qPCR in UPF1-depleted HeLa cells with FLAG-LIN28A and CPP-peptides (Supplementary Fig. 5d); type: cell-based; details: siUPF1 + FLAG-LIN28A, 2 μM, n = 3
Description: For CPP-conjugated peptide delivery, HeLa, 293T, and PA-1 cells were incubated with CPP-conjugated peptides or CPP-FITC at 2 μM in DMEM with 10% FBS for 12 h a day before cell harvest. hPSCs were treated with CPP-conjugated peptides at 10 μM in mTeSR Plus Medium, and the peptide-containing medium was changed every day over 10 days. The ROCK inhibitor (Tocris Bioscience, Y-27632) treated-hPSCs were dissociated into single cells using Accutase (Merck, SCR005) and differentiated into ectoderm, mesoderm, and endoderm using the STEMdiff Trilineage Differentiation Kit ([…] Technologies, 05230) following the manufacturer’s protocol. Differentiated cells treated with CPP-conjugated peptides were analysed at 0, 3, and 5 days for ectoderm and endoderm, and at 0, 3, and 4 days for mesoderm. […]
cDNA was synthesised using RevertAid Reverse Transcriptase (Thermo Fisher Scientific, EP0441) with synthesised random hexamer (Macrogen) for total RNA or stem-loop primers for miRNA. For RT-qPCR reactions, the SensiFAST SYBR No-ROX kit (Meridian Bioscience) was used according to the manufacturer’s protocol. All data analysis and visualisation were conducted using R 3.6.1 [www.r-project.org] or GraphPad Prism 10. RT primers for miRNA and RT-qPCR primer sequences are provided in Supplementary Data 6. […]

Sequence	gene expression, CPP-P8 / P1 ([1]; ACTC1)	gene expression, CPP-P8 / P1 ([1]; ACTN1)	gene expression, CPP-P8 / P1 ([1]; ADAR)	gene expression, CPP-P8 / P1 ([1]; ADM)	levels of the NMD targets ([1]; CHA15, 10 μM daily for 5 days)	transcripts with significant two-fold change ([1]; CHA15, 5 days, p < 0.05) [transcripts]	CAPN6 expression (dot plot) ([1]; CHA15, P8 vs P1 plot (Fig. 6d))	CDH6 expression (dot plot) ([1]; CHA15, P8 vs P1 plot (Fig. 6d))	CYP26A1 expression (dot plot) ([1]; CHA15, P8 vs P1 plot (Fig. 6d))	DLX5 expression (dot plot) ([1]; CHA15, P8 vs P1 plot (Fig. 6d))	number of NMD targets downregulated ([1]; CHA15, |Fc| > 1.2, P < 0.05, of 286 NMD targets) [transcripts]	number of NMD targets significantly changed by CPP-P8 ([1]; |Fc| > 1.2, p < 0.05)	NMD targets commonly regulated with UPF1- and LIN28A-depletion ([1]; hPSCs, over 1.2-fold) [NMD targets]	transcripts commonly regulated with UPF1- and LIN28A-depletion ([1]; hPSCs, over 1.2-fold) [transcripts]	effect on NMD in absence of UPF1 [2]	NMD targets as share of significantly changed genes ([1]; hPSCs) [%]	number of transcripts significantly regulated ([1]; hPSCs, |Fc| > 1.2, p < 0.05) [transcripts]
KKKWCRKKKSSADEKRYRALKRTAERELLMNA [CPP-P8, CPP conjugated to P8]	-1.36	-1.23	-1.28	-2.99	efficiently depressed the levels of the NMD targets	69	0.9142	0.924	1.759	0.5911	32	51	10	230	did not affect NMD in the absence of LIN28A or UPF1		
KKKWCRKKKSSADEKRYRALKRTAERELLMNA [P8]												51				2.3	2196
